Test system: patients with metastatic castration-sensitive prostate cancer (mCSPC)
Settings: Grade ≥3

CNC(=O)c1ccc(N2C(=S)N(c3cnc(C#N)c(C(F)(F)F)c3)C(=O)C23CCC3)cc1F [Apalutamide, 4-[7-(6-cyano-5-trifluoromethylpyridin-3-yl)-8-oxo-6-thioxo-5,7-diazaspiro[3.4]oct-5-yl]-2-fluoro-N-methylbenzamide]
7 (1.3) no. (%): AE leading to discontinuation: Rash (grouped term)
3 (0.6) no. (%): AE leading to dose interruption: Asthenia
6 (1.1) no. (%): AE leading to dose interruption: Hypertension
20 (3.8) no. (%): AE leading to dose interruption: Rash (grouped term)
1 (0.2) no. (%): AE leading to discontinuation: Parkinson's disease | AE leading to discontinuation: Pulmonary embolism | AE leading to discontinuation: Radiculopathy | AE leading to discontinuation: Seizure | AE leading to discontinuation: Sudden cardiac death | AE leading to dose interruption: Atrial fibrillation | AE leading to dose interruption: Blood alkaline phosphatase increased | AE leading to dose interruption: Cardiac failure congestive | AE leading to dose interruption: Cerebrovascular accident | AE leading to dose interruption: Cognitive disorder | AE leading to dose interruption: Confusional state | AE leading to dose interruption: Decreased appetite | AE leading to dose interruption: Diabetes mellitus | AE leading to dose interruption: Dysuria | AE leading to dose interruption: Fall | AE leading to dose interruption: Fatigue | AE leading to dose interruption: Febrile neutropenia | AE leading to dose interruption: Gamma-glutamyltransferase increased | AE leading to dose interruption: Gastric ulcer perforation | AE leading to dose interruption: General physical health deterioration | AE leading to dose interruption: Hematoma | AE leading to dose interruption: Hemorrhage intracranial | AE leading to dose interruption: Hemorrhagic erosive gastritis | AE leading to dose interruption: Hip fracture | AE leading to dose interruption: Hyperbilirubinemia | AE leading to dose interruption: Hypokalemia | AE leading to dose interruption: Hyponatremia | AE leading to dose interruption: Ischemic cardiac events | AE leading to dose interruption: Large intestinal ulcer perforation | AE leading to dose interruption: New cancer neoplasm | AE leading to dose interruption: Rheumatoid arthritis | AE leading to dose interruption: Spinal cord compression | AE leading to dose interruption: Subarachnoid hematoma
5 (1.0) no. (%): AE leading to discontinuation: New cancer neoplasm
2 (0.4) no. (%): AE leading to dose interruption: Chronic obstructive pulmonary disease | AE leading to dose interruption: Hematuria | AE leading to dose interruption: Hypertriglyceridemia | AE leading to dose interruption: Neutropenia
0 no. (%): AE leading to discontinuation: Lip swelling | AE leading to discontinuation: Loss of consciousness | AE leading to discontinuation: Pleural effusion | AE leading to discontinuation: Pulmonary edema | AE leading to discontinuation: Respiratory failure | AE leading to discontinuation: Subdural hemorrhage | AE leading to discontinuation: Sudden death | AE leading to dose interruption: Anxiety | AE leading to dose interruption: Arthralgia | AE leading to dose interruption: Bile duct obstruction | AE leading to dose interruption: Cardiac amyloidosis | AE leading to dose interruption: Cardiac disorder | AE leading to dose interruption: Cardiac failure | AE leading to dose interruption: Cheilitis | AE leading to dose interruption: Chronic hepatitis | AE leading to dose interruption: Constipation | AE leading to dose interruption: Dehydration | AE leading to dose interruption: Depression | AE leading to dose interruption: Diarrhea | AE leading to dose interruption: Diplegia | AE leading to dose interruption: Dizziness | AE leading to dose interruption: Dyspnea | AE leading to dose interruption: Edema | AE leading to dose interruption: Eyelid edema | AE leading to dose interruption: Facial edema | AE leading to dose interruption: Gastritis | AE leading to dose interruption: Hallucination | AE leading to dose interruption: Headache | AE leading to dose interruption: Hepatic cirrhosis | AE leading to dose interruption: Hepatic failure | AE leading to dose interruption: Hot flush | AE leading to dose interruption: Hydronephrosis | AE leading to dose interruption: Hypersensitivity | AE leading to dose interruption: Influenza-like illness | AE leading to dose interruption: Insomnia | AE leading to dose interruption: Mental status changes | AE leading to dose interruption: Muscular weakness | AE leading to dose interruption: Musculoskeletal stiffness | AE leading to dose interruption: Nausea | AE leading to dose interruption: Osteoarthritis | AE leading to dose interruption: Osteoporosis | AE leading to dose interruption: Pathological fracture | AE leading to dose interruption: Peripheral edema | AE leading to dose interruption: Peripheral swelling | AE leading to dose interruption: Proctalgia | AE leading to dose interruption: Pyrexia | AE leading to dose interruption: Renal injury | AE leading to dose interruption: Seizure | AE leading to dose interruption: Stomatitis | AE leading to dose interruption: Subarachnoid hemorrhage | AE leading to dose interruption: Subdural hemorrhage
4 (0.8) no. (%): AE leading to dose interruption: Aspartate aminotransferase or alanine aminotransferase increased | AE leading to dose interruption: Infections | AE leading to dose interruption: Pain (grouped term)

Source: patent publication US12303497B2, “Anti-androgens for the treatment of metastatic castration-sensitive prostate cancer” (priority 2019, dated 2025)
